Read-outs that look alike come from different tables or passages of the source.
What was measured:
cancer cells = assay: Survival rate of cancer cells after test compound is added (flow cytometry, Annexin V-FITC/PI, clinical specimen); assay type: cell-based, patient; details: Homo sapiens, 18 h, read-out: Survival rate (%) All cells (Stem cells and ordinary cells)
Excerpt: (§1) Take fresh or cryopreserved clinical specimen (acute myelogenous leukemia (AML, marker is CD34^+/CD38^+), chronic myelogenous leukemia (CML, Ph+/CD34+/CXCR4+), chronic lymphocytic leukemia (CLL,CD133+/CD19−/CD38−), skin cancer (CD34+), breast cancer (CD44+/CD24−/ESA+), ovarian cancer (CD44+/CD117+), brain tumor (CD133+) prostate cancer (CD44+/CD24−), head-neck squamous cell carcinoma (CD44+), laryngeal cancer (CD133+), pancreatic cancer (ESA+/CD44+/CD24+), retinoblastoma (ABCG2/ALDH1), Children hepatoblastoma (CD34+/THY1+/c-kit+), liver cancer (CD133+), malignant melanoma (CD133+), colorectal cancer (EpCAM^high/CD44+), colon adenocarcinoma (CD44^high), glioma (ABCG-2/BCRP1), gastrointestinal tumor (ABCG-2/BCRP1), nasopharynx cancer (ABCG2), brain glioma (Dlk-1/Pref-1), gastric cancer (CD45+), lung adenocarcinoma (Sca-1/CD45-/Pecam-/CD34+), lung cancer (CD133+CD34+CD44+)) of patient. Take the acute myelogenous leukemia as the example, conduct density gradient centrifugation with Ficoll and take out the middle mononuclear cells, re-suspend it with serum-free IMDM after centrifuged. Adjust the concentration of cells into 1×10^6/mL and lay 24-well plate with 1 mL in each well, and then treat 18 hours with the compound to select with corresponding concentration. Collect the cells and centrifuge them at 1500 rps for 8 minutes, re-suspend the precipitation with […], mark the antibodies related to leukemia stem cell, avoid light to incubate 30 minutes at room temperature and then centrifuge it at 1500 rps, then wash away the unbound antibody CD34^+CD38^+. Re-suspend it with 100 μl 1× Binding Buffer and add respectively 5 μl Annexin V-FITC and PI, then avoid light to incubate 15 minutes before add 200 μl 1× Binding Buffer, then use flow cytometry to examine the marked apoptosis within one hour.

normal cells = assay: Survival rate of normal cells after test compound is added (flow cytometry, Annexin V-FITC/PI); assay type: cell-based; details: 18 h
Excerpt: as §1

[1] = test system: PGE2 secreted by synoviocyte; assay: Content of PGE2 in culture supernatant of synoviocyte of RA model rats given test compound; assay type: in vivo; details: rat RA model, dose 30 mg/kg.2d; normal control 8.34 ± 1.29, NaCl 32.44 ± 10.32; 30 mg/kg
How it was run: (§2)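 Values reflect mediator secretion by synoviocytes taken from arthritic rats dosed at 30 mg/kg.2d. Normal and NaCl groups served as references.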

[2] = test system: IL-1β secreted by synoviocyte; assay: Content of IL-1β in culture supernatant of synoviocyte of RA model rats given test compound; assay type: in vivo; details: rat RA model, dose 30 mg/kg.2d; normal control 0.16 ± 0.034, NaCl 0.49 ± 0.136; 30 mg/kg
How it was run: as §2

cancer stem cells = assay: Survival rate of cancer stem cells after test compound is added (flow cytometry, Annexin V-FITC/PI, clinical specimen); assay type: cell-based, patient; details: Homo sapiens, 18 h
Excerpt: as §1

[3] = Head and neck squamous cell carcinomas
[4] = read-out: Survival rate (%) All cells (Stem cells and ordinary cells)
[5] = read-out: Survival rate (%) Stem cells

Compound: CC1=C2CC[C@@](C)(O)[C@@H]2[C@H]2OC(=O)[C@@H](CN(C)C)[C@@H]2CC1 [Compound 23]
- viability at 10 µM (cancer cells; AML): 92%
- viability at 20 µM (cancer cells; AML): 84%
- viability at 10 µM (cancer cells; Brain glioma): 88%
- viability at 20 µM (cancer cells; Brain glioma): 85%
- viability at 10 µM (cancer cells; Brain tumor): 89%
- viability at 20 µM (cancer cells; Brain tumor): 85%
- viability at 10 µM (cancer cells; Breast cancer): 89%
- viability at 20 µM (cancer cells; Breast cancer): 86%
- viability at 10 µM (cancer cells; CLL): 95%
- viability at 20 µM (cancer cells; CLL): 85%
- viability at 10 µM (cancer cells; CML): 91%
- viability at 20 µM (cancer cells; CML): 79%
- viability at 10 µM (cancer cells; Children hepatoblastoma): 93%
- viability at 20 µM (cancer cells; Children hepatoblastoma): 86%
- viability at 10 µM (cancer cells; Colon adenocarcinoma): 91%
- viability at 20 µM (cancer cells; Colon adenocarcinoma): 89%
- viability at 10 µM (cancer cells; Colorectal cancer): 88%
- viability at 20 µM (cancer cells; Colorectal cancer): 81%
- viability at 10 µM (cancer cells; Gastric cancer): 86%
- viability at 20 µM (cancer cells; Gastric cancer): 84%
- viability at 10 µM (cancer cells; Gastrointestinal tumor): 94%
- viability at 20 µM (cancer cells; Gastrointestinal tumor): 88%
- viability at 10 µM (cancer cells; Glioma): 94%
- viability at 20 µM (cancer cells; Glioma): 87%
- viability at 10 µM (cancer cells; [3]): 91%
- viability at 20 µM (cancer cells; [3]): 88%
- viability at 10 µM (cancer cells; Laryngeal cancer): 88%
- viability at 20 µM (cancer cells; Laryngeal cancer): 82%
- viability at 10 µM (cancer cells; Liver cancer): 88%
- viability at 20 µM (cancer cells; Liver cancer): 87%
- viability at 10 µM (cancer cells; Lung adenocarcinoma): 87%
- viability at 20 µM (cancer cells; Lung adenocarcinoma): 87%
- viability at 10 µM (cancer cells; Lung cancer): 88%
- viability at 20 µM (cancer cells; Lung cancer): 84%
- viability at 10 µM (cancer cells; Malignant melanoma): 89%
- viability at 20 µM (cancer cells; Malignant melanoma): 86%
- viability at 10 µM (cancer cells; Nasopharynx cancer): 94%
- viability at 20 µM (cancer cells; Nasopharynx cancer): 81%
- viability at 10 µM (cancer cells; Ovarian cancer): 91%
- viability at 20 µM (cancer cells; Ovarian cancer): 84%
- viability at 10 µM (cancer cells; Pancreatic cancer): 90%
- viability at 20 µM (cancer cells; Pancreatic cancer): 86%
- viability at 10 µM (cancer cells; Prostate cancer): 92%
- viability at 20 µM (cancer cells; Prostate cancer): 89%
- viability at 10 µM (cancer cells; Retinoblastoma): 91%
- viability at 20 µM (cancer cells; Retinoblastoma): 85%
- viability at 10 µM (cancer cells; Skin cancer): 95%
- viability at 20 µM (cancer cells; Skin cancer): 87%
- viability at 10 µM (normal cells; [4]): 96%
- viability at 10 µM (normal cells; [5]): 93%
- viability at 20 µM (normal cells; [4]): 95%
- viability at 20 µM (normal cells; [5]): 92%
- Content of PGE2 in culture supernatant of synoviocyte (x ± s) [1]: 21.71 ± 2.32 ng/mL
- Content of IL-1β in culture supernatant of synoviocyte (x ± s) [2]: 0.36 ± 0.065 ng/mL
- viability at 10 µM (cancer stem cells; AML): 85%
- viability at 20 µM (cancer stem cells; AML): 72%
- viability at 10 µM (cancer stem cells; Brain glioma): 84%
- viability at 20 µM (cancer stem cells; Brain glioma): 76%
- viability at 10 µM (cancer stem cells; Brain tumor): 85%
- viability at 20 µM (cancer stem cells; Brain tumor): 73%
- viability at 10 µM (cancer stem cells; Breast cancer): 84%
- viability at 20 µM (cancer stem cells; Breast cancer): 74%
- viability at 10 µM (cancer stem cells; CLL): 86%
- viability at 20 µM (cancer stem cells; CLL): 74%
- viability at 10 µM (cancer stem cells; CML): 87%
- viability at 20 µM (cancer stem cells; CML): 71%
- viability at 10 µM (cancer stem cells; Children hepatoblastoma): 85%
- viability at 20 µM (cancer stem cells; Children hepatoblastoma): 79%
- viability at 10 µM (cancer stem cells; Colon adenocarcinoma): 88%
- viability at 20 µM (cancer stem cells; Colon adenocarcinoma): 81%
- viability at 10 µM (cancer stem cells; Colorectal cancer): 79%
- viability at 20 µM (cancer stem cells; Colorectal cancer): 72%
- viability at 10 µM (cancer stem cells; Gastric cancer): 82%
- viability at 20 µM (cancer stem cells; Gastric cancer): 77%
- viability at 10 µM (cancer stem cells; Gastrointestinal tumor): 91%
- viability at 20 µM (cancer stem cells; Gastrointestinal tumor): 82%
- viability at 10 µM (cancer stem cells; Glioma): 87%
- viability at 20 µM (cancer stem cells; Glioma): 76%
- viability at 10 µM (cancer stem cells; [3]): 84%
- viability at 20 µM (cancer stem cells; [3]): 78%
- viability at 10 µM (cancer stem cells; Laryngeal cancer): 79%
- viability at 20 µM (cancer stem cells; Laryngeal cancer): 73%
- viability at 10 µM (cancer stem cells; Liver cancer): 82%
- viability at 20 µM (cancer stem cells; Liver cancer): 79%
- viability at 10 µM (cancer stem cells; Lung adenocarcinoma): 85%
- viability at 20 µM (cancer stem cells; Lung adenocarcinoma): 82%
- viability at 10 µM (cancer stem cells; Lung cancer): 85%
- viability at 20 µM (cancer stem cells; Lung cancer): 78%
- viability at 10 µM (cancer stem cells; Malignant melanoma): 82%
- viability at 20 µM (cancer stem cells; Malignant melanoma): 76%
- viability at 10 µM (cancer stem cells; Nasopharynx cancer): 85%
- viability at 20 µM (cancer stem cells; Nasopharynx cancer): 74%
- viability at 10 µM (cancer stem cells; Ovarian cancer): 87%
- viability at 20 µM (cancer stem cells; Ovarian cancer): 75%
- viability at 10 µM (cancer stem cells; Pancreatic cancer): 87%
- viability at 20 µM (cancer stem cells; Pancreatic cancer): 77%
- viability at 10 µM (cancer stem cells; Prostate cancer): 85%
- viability at 20 µM (cancer stem cells; Prostate cancer): 77%
- viability at 10 µM (cancer stem cells; Retinoblastoma): 82%
- viability at 20 µM (cancer stem cells; Retinoblastoma): 74%
- viability at 10 µM (cancer stem cells; Skin cancer): 85%
- viability at 20 µM (cancer stem cells; Skin cancer): 75%

From US10463644B2, “Uses of sesquiterpene lactone compounds and their derivatives in drugs preparation” (ACCENDATECH, priority 2013, dated 2019)
